Data on 11 molecules can be found in PubChem BioAssay (NCI).

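Five concentrations, 48 hours, 96-well plates. Here, GI50 denotes the concentration required for 50% inhibition of growth. TGI is the concentration that stops growth completely.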

Common to all, as to assay: NCI tumour cell line growth inhibition, 48 h
Test [1] concerns LXFL 529 NSCLC.
The test system of test [2] is HCC-2998 colon.
For test [3], the system named is BT-549 breast.
The subject of test [4] is MDA-MB-231 breast.
For test [5], the system named is PC-3 prostate.
Test [6] deals with DU-145 prostate.
In test [7] the test system is MDA-MB-435.
In test [8] the test system is T-47D breast.
The subject of test [9] is XF 498 CNS.
Test [10] concerns P388 leukemia.
Test [11] deals with SN12K1 renal.
Test [12] relates to HS 578T breast.

For `C/C(=C1/N=C(c2cc([N+](=O)[O-])ccc2Cl)N(C2=CC=C(Cl)CC2)C1=O)c1cc2ccccc2oc1=O`, the TGI in test [1] and in [2] was greater than 100 µM each time.

In the case of `CCCCN(CCCC)c1ccc(N=Nc2ccc(S(=O)(=O)O)cc2)cc1`, the TGI in test [3] was greater than 100 µM; in test [2], 73.7 µM; in [4], 64.7 µM; in [5] it was 97.1 µM; in test [6] it was greater than 100 µM; in [7] it was greater than 100 µM. This molecule also had a TGI in test [8] of 55.5 µM.

`CC1=CC[C@H](C)C(C)(C)C1/C=C/C(C)=C/CC[C@@]1(CO)[C@H](CCCO)/C(=C(/C)C=O)CC[C@]1(C)O` (some centres not stated): the figures for the TGI in test [1], in [2] and in test [9] were 20.2 µM, 4.41 µM and 19.9 µM, respectively.

As for `CC(=O)/C=C/c1c[nH]c(=O)[nH]c1=O`, the TGI stood at 718 µM in test [10], 480 µM in test [2], 341 µM in test [11] and 151 µM in [9].

Take `Cc1cc(S(N)(=O)=O)c(S/C(=N\Nc2ccc([N+](=O)[O-])cc2)c2ccc(Cl)cc2)cc1Cl`: the TGI in test [3] was 35.4 µM; in [4] it was 8.27 µM; in test [12], greater than 100 µM; in test [6] it was 5.51 µM; in test [7], 6.88 µM; in test [8], greater than 100 µM.

Turning to `O=C(COC(=O)c1ccccc1)c1ccc(Br)cc1`, the TGI in test [3] is 21.1 µM; in test [2] it was 26.9 µM; in test [4] it was 30.5 µM; in [12], 29.6 µM; in test [5], 38.7 µM; in test [6], 64.6 µM. Moreover, the figures for the TGI in test [7] and in test [8] were 20.4 µM and 62.6 µM, respectively.

Turning to `COc1cc2cnc3c(c2cc1OC)Cc1cc2c(cc1-3)OCO2`, the GI50 is 0.391 µM in test [3]; less than 0.01 µM in test [2]; 0.179 µM in test [4]; less than 0.01 µM in test [12]; less than 0.01 µM in [5]; 0.0338 µM in [6]. In test [8], the GI50 was 1.71 µM. In addition, the TGI is 50.2 µM in [3]; 0.0562 µM in test [2]; greater than 100 µM in [4]; greater than 100 µM in test [12]; greater than 54.1 µM in [6]; greater than 100 µM in test [8].

Consider `O=S(=O)(O)c1ccc(N=Nc2ccc(N=Nc3ccc(/C=C/c4ccc(N=[N+]([O-])c5ccc(/C=C/c6ccc(N=Nc7ccc(N=Nc8ccc(S(=O)(=O)O)cc8)c8ccccc78)cc6S(=O)(=O)O)c(S(=O)(=O)O)c5)cc4S(=O)(=O)O)c(S(=O)(=O)O)c3)c3ccccc23)cc1`, for which the TGI in [10], in test [2], in [11] and in test [9] was greater than 100 µM each time.

Consider `Nc1ccccc1Sc1ccc(Cl)cc1`, for which the TGI in [1] and in test [2] was greater than 100 µM each time.

Consider `COc1cccc(NC(=O)N/C(=C/c2ccc(N(CCC#N)CCC#N)cc2)NC(=O)c2cc([N+](=O)[O-])ccc2Cl)c1`, for which the TGI in [1] and in [9] was greater than 100 µM in each case.

On to `CNC=O`, for which the TGI in [10] is greater than 5620 µM; in test [3], greater than 10000 µM; in test [2] it was less than 3980 µM; in test [4] it was greater than 10000 µM; in test [12] it was greater than 10000 µM; in test [5], greater than 10000 µM. Besides, the TGI in test [6], in test [11], in [7], in test [8] and in test [9] was greater than 10000 µM each time.
